pIC50: −log10 of the molar value.
Columns and labels:
[1] = biological target: T1, Dual specificity protein phosphatase 6 (Homo sapiens, UniProt Q16828); assay: Inhibition of His-tagged MKP3 (unknown origin) expressed in Escherichia coli BL21 cells using para-nitrophenyl phosphate as substrate incubated for 5 to 10 mins by microplate reader based spectrophotometric analysis
T1 sequence (Q16828 whole entry): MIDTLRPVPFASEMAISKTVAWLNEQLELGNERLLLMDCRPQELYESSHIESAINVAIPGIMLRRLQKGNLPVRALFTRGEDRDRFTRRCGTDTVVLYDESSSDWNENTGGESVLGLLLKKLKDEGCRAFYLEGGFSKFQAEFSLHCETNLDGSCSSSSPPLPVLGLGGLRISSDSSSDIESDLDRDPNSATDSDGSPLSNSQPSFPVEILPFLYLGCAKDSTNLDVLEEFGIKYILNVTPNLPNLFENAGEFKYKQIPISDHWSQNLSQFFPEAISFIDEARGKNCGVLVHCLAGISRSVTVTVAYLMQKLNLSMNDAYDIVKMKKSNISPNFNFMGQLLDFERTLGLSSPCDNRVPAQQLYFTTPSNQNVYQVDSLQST

[2] = biological target: T2, Dual specificity protein phosphatase CDC14A (Homo sapiens, UniProt Q9UNH5); assay: Inhibition of His-tagged CDC14A (unknown origin) expressed in Escherichia coli BL21 cells using para-nitrophenyl phosphate as substrate incubated for 5 to 10 mins by microplate reader based spectrophotometric analysis
T2 sequence (Q9UNH5 whole entry): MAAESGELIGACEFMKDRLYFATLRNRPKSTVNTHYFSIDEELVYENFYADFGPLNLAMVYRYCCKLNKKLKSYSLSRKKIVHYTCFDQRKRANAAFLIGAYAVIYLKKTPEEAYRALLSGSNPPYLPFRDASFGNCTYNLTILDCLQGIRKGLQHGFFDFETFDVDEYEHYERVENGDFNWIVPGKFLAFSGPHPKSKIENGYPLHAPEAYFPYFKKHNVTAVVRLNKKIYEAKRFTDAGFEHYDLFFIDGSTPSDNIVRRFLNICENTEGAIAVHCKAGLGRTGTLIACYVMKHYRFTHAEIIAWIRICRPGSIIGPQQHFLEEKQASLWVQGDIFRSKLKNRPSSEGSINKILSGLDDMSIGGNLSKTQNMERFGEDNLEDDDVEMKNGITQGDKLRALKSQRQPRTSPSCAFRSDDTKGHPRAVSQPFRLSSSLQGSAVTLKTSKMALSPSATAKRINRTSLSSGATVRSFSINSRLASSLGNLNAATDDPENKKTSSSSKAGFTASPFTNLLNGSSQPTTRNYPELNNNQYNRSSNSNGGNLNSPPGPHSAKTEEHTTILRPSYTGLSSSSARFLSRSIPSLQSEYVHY

[3] = biological target: Tyrosine-protein phosphatase non-receptor type 6 (Homo sapiens, UniProt P29350); assay: Inhibition of His-tagged SHP1 (unknown origin) expressed in Escherichia coli BL21 cells using para-nitrophenyl phosphate as substrate incubated for 5 to 10 mins by microplate reader based spectrophotometric analysis
[4] = biological target: T3, Tyrosine-protein phosphatase non-receptor type 1 (Homo sapiens, UniProt P18031); assay: Inhibition of His-tagged PTP1B (unknown origin) expressed in Escherichia coli BL21 cells using para-nitrophenyl phosphate as substrate incubated for 5 to 10 mins by microplate reader based spectrophotometric analysis
T3 sequence (P18031 whole entry): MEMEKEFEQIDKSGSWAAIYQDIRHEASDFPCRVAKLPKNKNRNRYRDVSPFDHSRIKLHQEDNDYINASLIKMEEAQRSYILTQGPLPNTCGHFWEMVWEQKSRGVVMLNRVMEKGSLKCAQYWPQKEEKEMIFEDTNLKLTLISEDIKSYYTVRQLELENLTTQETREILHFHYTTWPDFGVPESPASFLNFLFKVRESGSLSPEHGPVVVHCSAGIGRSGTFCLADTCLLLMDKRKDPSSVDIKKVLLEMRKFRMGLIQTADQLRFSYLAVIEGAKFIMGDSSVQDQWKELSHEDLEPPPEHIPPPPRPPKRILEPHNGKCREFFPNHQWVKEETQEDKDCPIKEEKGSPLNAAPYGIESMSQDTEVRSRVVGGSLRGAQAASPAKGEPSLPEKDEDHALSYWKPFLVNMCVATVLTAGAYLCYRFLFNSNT

[5] = biological target: Receptor-type tyrosine-protein phosphatase beta (Homo sapiens, UniProt P23467); assay: Inhibition of His-tagged PTPbeta (unknown origin) expressed in Escherichia coli BL21 cells using para-nitrophenyl phosphate as substrate incubated for 5 to 10 mins by microplate reader based spectrophotometric analysis
[6] = biological target: T4, Serine/threonine-protein phosphatase 5 (Homo sapiens, UniProt P53041); assay: Inhibition of His-tagged PP5 (unknown origin) expressed in Escherichia coli BL21 cells using para-nitrophenyl phosphate as substrate incubated for 5 to 10 mins by microplate reader based spectrophotometric analysis
T4 sequence (P53041 whole entry): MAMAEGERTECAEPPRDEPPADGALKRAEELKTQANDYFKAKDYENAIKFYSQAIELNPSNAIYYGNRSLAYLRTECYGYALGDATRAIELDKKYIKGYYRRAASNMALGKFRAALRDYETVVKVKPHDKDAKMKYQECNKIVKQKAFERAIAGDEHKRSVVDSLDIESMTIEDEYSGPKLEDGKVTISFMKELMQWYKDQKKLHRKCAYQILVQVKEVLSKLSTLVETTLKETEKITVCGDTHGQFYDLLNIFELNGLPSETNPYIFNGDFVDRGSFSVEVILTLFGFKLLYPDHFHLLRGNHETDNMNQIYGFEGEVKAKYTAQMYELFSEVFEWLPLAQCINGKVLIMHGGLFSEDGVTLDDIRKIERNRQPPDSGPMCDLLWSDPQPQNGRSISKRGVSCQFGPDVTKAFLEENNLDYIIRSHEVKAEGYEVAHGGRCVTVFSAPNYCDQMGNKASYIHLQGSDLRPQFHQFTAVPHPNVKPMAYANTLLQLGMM

[7] = biological target: T5, Dual specificity protein phosphatase 23 (Homo sapiens, UniProt Q9BVJ7); assay: Inhibition of His-tagged VHZ (unknown origin) expressed in Escherichia coli BL21 cells using para-nitrophenyl phosphate as substrate incubated for 5 to 10 mins by microplate reader based spectrophotometric analysis
T5 sequence (Q9BVJ7 whole entry): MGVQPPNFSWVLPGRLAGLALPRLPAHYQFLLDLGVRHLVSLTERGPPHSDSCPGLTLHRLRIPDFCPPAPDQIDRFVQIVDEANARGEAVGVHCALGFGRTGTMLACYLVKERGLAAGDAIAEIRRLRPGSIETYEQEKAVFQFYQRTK

[8] = biological target: Dual specificity protein phosphatase 3 (Homo sapiens, UniProt P51452); assay: Inhibition of His-tagged VHR (unknown origin) expressed in Escherichia coli BL21 cells using para-nitrophenyl phosphate as substrate incubated for 5 to 10 mins by microplate reader based spectrophotometric analysis
[9] = biological target: Receptor-type tyrosine-protein phosphatase gamma (Homo sapiens, UniProt P23470); assay: Inhibition of His-tagged PTPgamma (unknown origin) expressed in Escherichia coli BL21 cells using para-nitrophenyl phosphate as substrate incubated for 5 to 10 mins by microplate reader based spectrophotometric analysis
Sequence of Receptor-type tyrosine-protein phosphatase gamma (P23470 whole entry): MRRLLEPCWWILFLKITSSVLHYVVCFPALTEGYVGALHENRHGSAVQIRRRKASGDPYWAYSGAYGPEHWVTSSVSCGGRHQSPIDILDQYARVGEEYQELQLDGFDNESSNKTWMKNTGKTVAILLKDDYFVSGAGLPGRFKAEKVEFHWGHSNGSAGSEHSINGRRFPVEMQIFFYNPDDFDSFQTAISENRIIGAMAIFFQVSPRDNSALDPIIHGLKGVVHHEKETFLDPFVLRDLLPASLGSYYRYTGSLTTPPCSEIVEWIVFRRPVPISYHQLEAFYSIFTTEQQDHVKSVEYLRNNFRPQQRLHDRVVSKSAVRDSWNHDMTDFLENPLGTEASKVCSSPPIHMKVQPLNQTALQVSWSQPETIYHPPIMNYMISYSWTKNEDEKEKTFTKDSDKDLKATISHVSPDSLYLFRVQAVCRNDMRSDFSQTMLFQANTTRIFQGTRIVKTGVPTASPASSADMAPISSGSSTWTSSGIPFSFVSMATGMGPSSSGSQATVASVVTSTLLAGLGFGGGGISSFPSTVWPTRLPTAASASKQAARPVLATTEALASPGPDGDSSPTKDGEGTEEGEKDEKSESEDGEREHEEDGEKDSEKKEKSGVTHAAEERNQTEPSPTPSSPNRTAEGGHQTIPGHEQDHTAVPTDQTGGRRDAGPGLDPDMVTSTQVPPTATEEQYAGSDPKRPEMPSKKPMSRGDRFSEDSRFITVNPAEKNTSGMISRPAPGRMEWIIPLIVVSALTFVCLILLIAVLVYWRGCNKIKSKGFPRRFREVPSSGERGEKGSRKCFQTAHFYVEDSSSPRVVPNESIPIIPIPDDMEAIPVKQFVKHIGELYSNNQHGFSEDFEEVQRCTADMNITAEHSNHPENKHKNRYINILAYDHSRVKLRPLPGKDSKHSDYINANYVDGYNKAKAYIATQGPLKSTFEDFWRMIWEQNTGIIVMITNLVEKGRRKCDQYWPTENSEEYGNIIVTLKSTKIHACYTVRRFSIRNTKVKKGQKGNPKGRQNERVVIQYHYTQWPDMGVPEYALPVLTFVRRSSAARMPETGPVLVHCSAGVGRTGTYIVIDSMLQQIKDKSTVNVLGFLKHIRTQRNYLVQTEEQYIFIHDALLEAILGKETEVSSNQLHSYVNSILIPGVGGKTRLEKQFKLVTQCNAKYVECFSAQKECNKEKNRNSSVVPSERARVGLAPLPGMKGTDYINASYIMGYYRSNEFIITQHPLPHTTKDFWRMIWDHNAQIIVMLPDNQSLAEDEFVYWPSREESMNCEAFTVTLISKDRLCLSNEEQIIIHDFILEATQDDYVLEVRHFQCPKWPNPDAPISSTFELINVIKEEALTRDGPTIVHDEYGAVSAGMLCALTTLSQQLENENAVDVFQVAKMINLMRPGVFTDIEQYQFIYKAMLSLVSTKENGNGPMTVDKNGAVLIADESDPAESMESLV

Sequence of Dual specificity protein phosphatase 3 (P51452 whole entry): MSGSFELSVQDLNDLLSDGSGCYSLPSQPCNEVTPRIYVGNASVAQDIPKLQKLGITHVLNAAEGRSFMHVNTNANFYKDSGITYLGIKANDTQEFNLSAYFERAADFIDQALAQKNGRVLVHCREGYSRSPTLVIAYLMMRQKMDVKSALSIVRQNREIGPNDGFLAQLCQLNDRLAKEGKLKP
Sequence of Receptor-type tyrosine-protein phosphatase beta (P23467 whole entry): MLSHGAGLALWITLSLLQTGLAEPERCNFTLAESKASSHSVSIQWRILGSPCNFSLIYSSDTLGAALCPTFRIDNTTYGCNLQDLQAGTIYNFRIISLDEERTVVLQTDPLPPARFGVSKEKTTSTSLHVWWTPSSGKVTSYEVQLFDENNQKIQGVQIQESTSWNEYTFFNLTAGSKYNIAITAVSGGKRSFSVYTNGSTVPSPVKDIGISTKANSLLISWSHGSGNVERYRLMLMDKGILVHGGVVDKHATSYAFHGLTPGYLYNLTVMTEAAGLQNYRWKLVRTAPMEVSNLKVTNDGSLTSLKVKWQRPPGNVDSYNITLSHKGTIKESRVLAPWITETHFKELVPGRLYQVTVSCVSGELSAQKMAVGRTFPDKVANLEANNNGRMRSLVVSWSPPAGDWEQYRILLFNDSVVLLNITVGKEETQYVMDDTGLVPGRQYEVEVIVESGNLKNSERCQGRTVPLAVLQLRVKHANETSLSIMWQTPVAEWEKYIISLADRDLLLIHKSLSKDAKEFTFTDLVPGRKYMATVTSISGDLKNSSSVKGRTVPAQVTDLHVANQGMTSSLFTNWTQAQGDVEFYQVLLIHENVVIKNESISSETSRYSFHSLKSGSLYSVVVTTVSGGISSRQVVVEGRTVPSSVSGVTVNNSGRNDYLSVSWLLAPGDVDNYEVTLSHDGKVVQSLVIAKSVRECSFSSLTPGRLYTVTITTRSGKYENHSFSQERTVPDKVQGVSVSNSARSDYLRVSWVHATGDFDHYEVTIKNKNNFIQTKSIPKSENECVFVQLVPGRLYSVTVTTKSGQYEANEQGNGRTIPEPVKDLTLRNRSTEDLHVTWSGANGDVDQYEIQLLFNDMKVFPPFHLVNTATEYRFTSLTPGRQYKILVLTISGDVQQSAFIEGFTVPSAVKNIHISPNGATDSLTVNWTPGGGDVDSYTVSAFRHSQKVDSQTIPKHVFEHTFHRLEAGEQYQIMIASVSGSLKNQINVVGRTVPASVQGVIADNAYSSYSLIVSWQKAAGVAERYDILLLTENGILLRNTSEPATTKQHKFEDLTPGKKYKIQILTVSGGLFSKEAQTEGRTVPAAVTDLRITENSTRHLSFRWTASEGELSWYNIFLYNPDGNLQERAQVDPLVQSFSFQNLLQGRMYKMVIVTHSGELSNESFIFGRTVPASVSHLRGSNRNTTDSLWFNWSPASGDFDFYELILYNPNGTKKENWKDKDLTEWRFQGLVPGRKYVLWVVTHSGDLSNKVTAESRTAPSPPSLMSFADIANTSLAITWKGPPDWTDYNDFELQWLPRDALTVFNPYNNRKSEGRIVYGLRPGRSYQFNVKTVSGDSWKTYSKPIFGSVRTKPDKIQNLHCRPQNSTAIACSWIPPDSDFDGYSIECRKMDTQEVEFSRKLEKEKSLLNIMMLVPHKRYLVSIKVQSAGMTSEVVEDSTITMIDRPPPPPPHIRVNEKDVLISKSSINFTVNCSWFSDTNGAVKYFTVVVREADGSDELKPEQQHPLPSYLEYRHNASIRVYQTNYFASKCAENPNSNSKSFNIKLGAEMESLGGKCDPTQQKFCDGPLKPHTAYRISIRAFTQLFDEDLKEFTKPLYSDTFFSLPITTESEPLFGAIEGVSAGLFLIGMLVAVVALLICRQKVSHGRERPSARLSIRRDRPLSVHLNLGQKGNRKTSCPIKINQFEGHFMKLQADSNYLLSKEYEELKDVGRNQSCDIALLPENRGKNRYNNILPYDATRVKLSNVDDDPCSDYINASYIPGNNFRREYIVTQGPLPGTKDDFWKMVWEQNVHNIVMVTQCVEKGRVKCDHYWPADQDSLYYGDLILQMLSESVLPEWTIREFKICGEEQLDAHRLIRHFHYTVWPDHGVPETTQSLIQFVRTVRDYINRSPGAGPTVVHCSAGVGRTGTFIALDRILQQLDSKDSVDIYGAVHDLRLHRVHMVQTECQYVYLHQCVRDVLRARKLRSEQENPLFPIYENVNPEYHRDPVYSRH
Sequence of Tyrosine-protein phosphatase non-receptor type 6 (P29350 whole entry): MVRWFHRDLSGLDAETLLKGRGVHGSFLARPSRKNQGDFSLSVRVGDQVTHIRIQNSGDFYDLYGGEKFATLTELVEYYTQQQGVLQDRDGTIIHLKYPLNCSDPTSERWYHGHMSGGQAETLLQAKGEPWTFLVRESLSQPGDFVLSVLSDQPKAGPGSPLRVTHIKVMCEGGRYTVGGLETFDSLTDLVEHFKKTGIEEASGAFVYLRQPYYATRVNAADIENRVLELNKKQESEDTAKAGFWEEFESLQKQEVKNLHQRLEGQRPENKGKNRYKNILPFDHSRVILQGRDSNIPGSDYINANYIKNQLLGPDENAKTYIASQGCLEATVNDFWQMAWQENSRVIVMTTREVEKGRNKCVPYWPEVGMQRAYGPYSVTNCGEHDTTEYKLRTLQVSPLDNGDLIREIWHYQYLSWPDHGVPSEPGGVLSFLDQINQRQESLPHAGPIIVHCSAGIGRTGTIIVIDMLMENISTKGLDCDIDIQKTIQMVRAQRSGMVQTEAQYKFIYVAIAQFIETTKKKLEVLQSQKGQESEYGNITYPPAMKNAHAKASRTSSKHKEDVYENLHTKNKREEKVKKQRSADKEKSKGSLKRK

| SMILES | pIC50 [1] | pIC50 [2] | pIC50 [3] | pIC50 [4] | pIC50 [5] | pIC50 [6] | pIC50 [7] | pIC50 [8] | pIC50 [9] |
| --- | --- | --- | --- | --- | --- | --- | --- | --- | --- |
| O=C(Nc1cc(C(F)(F)F)cc(C(F)(F)F)c1)C(c1ccccc1)S(=O)(=O)O (stereo not drawn) | < 3.70 | < 3.70 | < 3.70 | < 3.70 | < 3.70 | < 3.70 | < 3.70 | < 3.70 | < 3.70 |
| O=C(Nc1ccc(OCc2ccccc2)c(Cl)c1)C(c1ccccc1)S(=O)(=O)O (stereo not drawn) | < 3.70 | < 3.70 | < 3.70 | – | < 3.70 | < 3.70 | < 3.70 | – | < 3.70 |
| Cc1c(Br)cc(NC(=O)C(c2ccccc2)S(=O)(=O)O)cc1Br (stereo not drawn) | < 3.70 | < 3.70 | < 3.70 | < 3.70 | < 3.70 | < 3.70 | < 3.70 | < 3.70 | < 3.70 |
| O=C(Nc1nc2ccc([N+](=O)[O-])cc2s1)C(c1ccccc1)S(=O)(=O)O (stereo not drawn) | < 4.00 | < 4.00 | < 4.00 | < 4.00 | < 4.00 | < 4.00 | < 4.00 | < 4.00 | < 4.00 |
| O=C(Nc1ccc(-n2ccnc2)cc1)C(c1ccccc1)S(=O)(=O)O (stereo not drawn) | < 4.00 | < 4.00 | < 4.00 | < 4.00 | < 4.00 | < 4.00 | < 4.00 | < 4.00 | < 4.00 |
